Measurements as given in paper PMC9784403 (Pharmaceuticals, 2022).
Several values for one entry are separate records, joined by “and”; a condition that tells them apart may be missing. Equal entries are not always repeated.

Experiments:
[1] = tested on: TMEM97-knocked out HeLa cells; set-up: method as in PMID 30443021; details: cited from earlier work
σ2R/TMEM97 [2] = target: T1, σ2R/TMEM97 (Rattus norvegicus, UniProt Q5U3Y7); format: binding; set-up: from tissue; host or cells: liver membranes of Sprague-Dawley rats
T1 sequence (Q5U3Y7 1-176): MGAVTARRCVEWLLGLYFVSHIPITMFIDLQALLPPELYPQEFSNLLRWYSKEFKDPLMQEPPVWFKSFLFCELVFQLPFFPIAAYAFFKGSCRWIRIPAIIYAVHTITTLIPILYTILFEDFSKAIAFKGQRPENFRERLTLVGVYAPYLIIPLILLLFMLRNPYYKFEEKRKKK
Experimental: All Kd and Bmax values were calculated via a nonlinear regression method using Prism, and the protein concentrations were determined using Lowry et al.’s method with BSA as the standard.

σ2R/TMEM97 [3] = target: T1, σ2R/TMEM97; assay: Competitive receptor binding assay with [125I]RHM-4
Experimental: Briefly, the livers of female SD rats (Rockland, ME, USA) were dissected and homogenized using a Wheaton overhead stirrer (120 Vac Overhead Stirrer, Millville, NJ, USA) in 10 mL/g tissue weight of ice-cold 10mM Tris-HCl/0.32M Sucrose, pH 7.4. The crude homogenate was centrifuged for 10 min at 1000× g at 4 °C, the pellets were discarded, and the supernatant was further centrifuged at 31,000× g for 20 min at 4 °C. The supernatant was discarded, and the pellet was resuspended in 3 mL/g of ice-cold 10 mM Tris-HCl/0.32M sucrose, pH 7.4, and centrifuged again at 31,000× g for 20 min at 4 °C. After centrifugation, the pellets were resuspended in 1 mL of 50mM Tris-HCl, pH 7.4, and stored at −80 °C.
The inhibition constant [14] values of the tested ligands were determined using the Cheng and Prussoff equation [35], and the mean Ki values ± SEM were reported for at least three independent experiments.

σ2R/TMEM97 [4] = target: T1, σ2R/TMEM97; assay: Competitive receptor binding assay with [3H]DTG (σ1R masked with (+)-pentazocine)
Experimental: After incubation, the bound ligands were filtered using an M-24 Brandel filtration system (Brandel, Gaithersburg, MD, USA), collected on glass fiber paper (Whatman grade 934-AH, GE Healthcare Bio-Sciences, Pittsburgh, PA, USA), and counted using a MicroBeta2 Microplate counter 2450 (Perkin Elmer, Boston, MA, USA) or Wizard2 Automatic Gamma Counter 2470 (Perkin Elmer, Boston, MA, USA). The inhibition constant [14] values of the tested ligands were determined using the Cheng and Prussoff equation [35], and the mean Ki values ± SEM were reported for at least three independent experiments.

σ1R = target: T2, σ1R (Cavia porcellus, UniProt Q60492); assay: σ1R competitive binding assay with [3H](+)-pentazocine; details: [3H](+)-pentazocine 5 nM; Guinea pig brain membrane; 90 min at 37 °C
T2 construct: 100 μg of the brain membrane from male Guinea pigs; from tissue; host or cells: brain membranes of male guinea pigs
Source text: For the σ1R assay, [^3H]Pentazocine (Perkin Elmer, Boston, MA, USA) was used as the radioligand to define the σ1R binding affinity of the test compounds, and the protocol followed the references published before with minor modification. […] Afterward, the filter paper collection, signal counting procedure, and data analysis were in line with the study of [^3H]DTG mentioned above.

T2 sequence (Q60492 whole entry): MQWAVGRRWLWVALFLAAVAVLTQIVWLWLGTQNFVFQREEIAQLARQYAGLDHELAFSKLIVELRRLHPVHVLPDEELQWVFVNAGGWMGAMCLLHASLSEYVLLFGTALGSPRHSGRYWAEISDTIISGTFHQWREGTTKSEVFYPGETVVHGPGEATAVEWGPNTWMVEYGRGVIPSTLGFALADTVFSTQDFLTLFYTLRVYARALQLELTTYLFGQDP

Compound	Ki (σ2R/TMEM97 [3])	Ki (σ2R/TMEM97 [4])	Ki (σ1R)	further results
COc1cc2c(cc1OC)CN(CCCCNC(=O)c1cc([125I])cc(OC)c1OC)CC2 [[^125I]RHM-4]				specific binding after knocking out TMEM97 [1]: completely eliminated; Kd (σ2R/TMEM97 [2]; SD rat liver membranes, saturation binding, 100 nM (+)-pentazocine added for [3H]DTG, n = 3): 0.2 nM; Bmax (binding capacity) (σ2R/TMEM97 [2]; SD rat liver membranes, saturation binding, n = 3): 3894 ± 50 fmol/mg and 3894 ± 90 fmol/mg; fold higher σ2R/TMEM97 affinity than that of [3H]DTG (σ2R/TMEM97 [2]; ratio of binding affinities of the two radioligands): ~ 50 fold
COc1cc2c(cc1OC)CN(CCc1ccc(NC(=O)c3cccc4c(=O)c5cccc(OC)c5[nH]c34)cc1)CC2 [Elacridar, reference compound]	0.9 ± 0.3 nM	11.7 ± 0.7 nM		
C=CCN(C)CCCCCCOc1ccc(C(=O)c2ccc(Br)cc2)c(F)c1 [Ro 48-8071, reference compound]	73 ± 32.7 nM	370 ± 230 nM		
COc1cc2c(cc1OC)CN(CCCCc1cc(-c3cc(C)ccc3OCCF)no1)CC2 [compound 3]	0.24 ± 0.02 nM	2.3 ± 0.4 nM	715 ± 46 nM	
Cc1ccccc1NC(=N)Nc1ccccc1C [[^3H]DTG, reference compound]				Kd ([1]; read-out: Kd of retained low-affinity binding site): ~300 nM
CCCCNC(=O)c1cc(C)ccc1OCCF [compound 1]	> 10000 nM	> 10000 nM	1310 ± 87 nM	
COc1ccc(C)cc1NC(=O)OC1CC2CCCC(C1)N2CCCCCCN (centres unmarked) [SV119, reference compound]	35 ± 4 nM	44.3 ± 7.3 nM		
COc1cc2c(cc1OC)CN(CCCCNC(=O)c1cc(I)cc(OC)c1OC)CC2 [RHM-4]	0.2 ± 0.1 nM	11.7 ± 2.4 nM		fold increase of σ2R/TMEM97 affinity by combination of fragments 1 and 2 (σ2R/TMEM97 [3]; RHM-4 versus fragments 1 and 2): approximately 10 fold
COc1cc2c(cc1OC)CN(CCCCc1cc(-c3ccc(F)cc3)no1)CC2 [compound 4]	0.05 ± 0.01 nM	0.6 ± 0.3 nM	800 ± 23 nM	
Cc1ccc2c(c1)C1CN(C)CCC1N2C(=O)CSc1nnnn1-c1ccc(Cl)cc1 (centres unmarked) [AG-205, reference compound]	571 ± 82.1 nM	807 ± 238 nM		
COc1cccc2c1CCCC2CCCN1CCN(C2CCCCC2)CC1 (centres unmarked) [PB-28, reference compound]	0.1 nM			
CCCCN1CCc2cc(OC)c(OC)cc2C1 [compound 2]	7 ± 3.9 nM	10.4 ± 3.4 nM	38 ± 3.3 nM	
